Source: patent publication US9669003B2, “Use of flavone and flavanone derivatives in preparation of sedative and hypnotic drugs” (priority 2012, dated 2017)
Marks after values point to notes of the source that are not given here.

What was measured:
Type in all cases: in vivo
[1] = tested on: Kunming mice; assay: Influence on hypnosis effect with pentobarbital sodium doses below the threshold (25 mg/kg i.p.); conditions: pentobarbital sodium 25 mg/kg i.p. 60 min later, sleep observed in 30 min, n = 10
Procedure, shortened: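 Kunming mice (10 per group, half female) given single oral doses of 25, 50 or 100 mg/kg in 0.5% CMC-Na; 60 min later pentobarbital sodium 25 mg/kg i.p. Sleep (righting reflex lost >1 min) scored within 30 min as percentage asleep, χ2 test.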

[2] = tested on: Kunming mice; assay: Influence on autonomic activity of normal mice (ZIL-2 mice autonomic activity meter, counts within 10 min); conditions: intragastric, x ± s, n = 10; for Times of activities in 1 h after drug administration/10 min: 1 h after administration; for Times of activities in 2 h after drug administration/10 min: 2 h after administration; for Times of activities in 24 h after drug administration/10 min: 24 h after administration
Procedure, shortened: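 Kunming mice (10 per group, half each sex) were dosed at 25, 50 or 100 mg/kg in 0.5% CMC-Na. Spontaneous activity counts over 10 min were recorded at 1 h, 2 h and 24 h post-dose. Groups were compared by ANOVA with Dunnett's test after Levene's check.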

[3] = tested on: Kunming mice; assay: Influence on hypnosis effect with pentobarbital sodium doses at the threshold (50 mg/kg i.p.); conditions: pentobarbital sodium 50 mg/kg i.p. 60 min later, x ± s, n = 10
Procedure, shortened: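 Kunming mice (10/group, half each sex) received compound in 0.5% CMC-Na intragastrically at 25, 50 or 100 mg/kg; 60 min later given 0.3% sodium pentobarbital 50 mg/kg i.p. Sleep latency and duration recorded by loss of righting reflex over 1 min; ANOVA and χ2 for sleep incidence.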

[4] = test drug 25 mg/kg intragastric single dose
[5] = test drug 50 mg/kg intragastric single dose
[6] = test drug 100 mg/kg intragastric single dose
[7] = 25 mg/kg intragastric single dose
[8] = 50 mg/kg intragastric single dose
[9] = 100 mg/kg intragastric single dose

| Compound | Number of sleeping animals [1, 4] | rate of sleeping (%) [1, 4] | Number of sleeping animals [1, 5] | rate of sleeping (%) [1, 5] | Number of sleeping animals [1, 6] | rate of sleeping (%) [1, 6] | Times of activities in 1 h after drug administration/10 min ([2]; 25 mg/kg) | Times of activities in 2 h after drug administration/10 min ([2]; 25 mg/kg) | Times of activities in 24 h after drug administration/10 min ([2]; 25 mg/kg) | Times of activities in 1 h after drug administration/10 min ([2]; 50 mg/kg) | Times of activities in 2 h after drug administration/10 min ([2]; 50 mg/kg) | Times of activities in 24 h after drug administration/10 min ([2]; 50 mg/kg) | Times of activities in 1 h after drug administration/10 min ([2]; 100 mg/kg) | Times of activities in 2 h after drug administration/10 min ([2]; 100 mg/kg) | Times of activities in 24 h after drug administration/10 min ([2]; 100 mg/kg) | duration of sleep [3, 7] [min] | time to sleep [3, 7] [min] | duration of sleep [3, 8] [min] | time to sleep [3, 8] [min] | duration of sleep [3, 9] [min] | other results |
| --- | --- | --- | --- | --- | --- | --- | --- | --- | --- | --- | --- | --- | --- | --- | --- | --- | --- | --- | --- | --- | --- |
| COc1c(O)cc(C2CC(=O)c3c(O)cc(O)cc3O2)cc1C(=O)O (stereo not drawn) [Example 50] | 2 | 20% | 4 | 40* % | 7 | 70** % | 319.2 ± 55.4 /10 min | 290.6 ± 41.2 /10 min | 303.2 ± 78.6 /10 min | 297.5 ± 42.5 /10 min | 253.5 ± 40.4 /10 min | 304.7 ± 92.8 /10 min | 279.4 ± 48.3 /10 min | 224.7 ± 46.3 /10 min | 312.4 ± 79.1 /10 min | 22.71 ± 26.17 | 5.41 ± 2.17 | 28.68 ± 27.56 | 5.07 ± 2.34 | 65.35 ± 46.27 | time to sleep [3, 9]: 3.25 ± 1.16 min |
| CCCc1cc(C2CC(=O)c3c(cc(O)cc3[N+](=O)[O-])O2)cc(-c2ccccc2)c1C1CCSC1 (stereo not drawn) [Example 51] | 6 | 60** % | 6 | 60** % | 8 | 80*** % | 227.8 ± 75.6 /10 min | 231.8 ± 79.8 /10 min | 321.6 ± 70.7 /10 min | 143.3 ± 64.7 /10 min | 130.7 ± 63.2 /10 min | 306.3 ± 68.2 /10 min | 115.8 ± 34.4 /10 min | 108.8 ± 39.4 /10 min | 300.4 ± 77.5 /10 min | 49.88 ± 19.09 | 4.61 ± 1.74 | 57.61 ± 14.98 | 3.43 ± 1.99 | 82.27 ± 15.68 | time to sleep [3, 9]: 2.71 ± 1.72 min |
| CCc1cccc2c1C(=O)CC(c1cc(F)cc(C(=O)O)c1)O2 (stereo not drawn) [Example 53] | 4 | 40* % | 6 | 60** % | 7 | 70** % | 303.8 ± 67.4 /10 min | 283.8 ± 73.8 /10 min | 314.9 ± 68.9 /10 min | 249.3 ± 61.0 /10 min | 236.7 ± 60.8 /10 min | 297.7 ± 87.6 /10 min | 201.8 ± 36.6 /10 min | 194.8 ± 42.5 /10 min | 330.9 ± 73.6 /10 min | 39.56 ± 20.45 | 4.82 ± 1.61 | 47.28 ± 16.84 | 4.31 ± 1.84 | 52.86 ± 19.25 | time to sleep [3, 9]: 3.61 ± 1.48 min |
| CCc1cc(C2CC(=O)c3cc([N+](=O)[O-])c(SC#N)c(C4CCNC4)c3O2)ccc1C(=O)c1ccccc1 (stereo not drawn) [Example 54] | 3 | 30% | 5 | 50** % | 7 | 70** % | 307.3 ± 65.2 /10 min | 287.3 ± 72.9 /10 min | 331.2 ± 67.4 /10 min | 252.8 ± 62.1 /10 min | 240.2 ± 62.6 /10 min | 320.7 ± 75.1 /10 min | 205.3 ± 42.8 /10 min | 198.3 ± 48.5 /10 min | 315.3 ± 79.2 /10 min | 35.81 ± 17.2 | 4.84 ± 1.64 | 43.53 ± 14.97 | 4.33 ± 1.87 | 47.53 ± 15.92 | time to sleep [3, 9]: 3.63 ± 1.54 min |
| COc1ccc(C2CC(=O)c3cc(CCS(=O)(=O)O)c(C4CCNC4)c(N)c3O2)cc1SC#N (stereo not drawn) [Example 55] | 5 | 50** % | 6 | 60** % | 9 | 90*** % | 232.5 ± 66.1 /10 min | 229.8 ± 75.0 /10 min | 295.2 ± 89.3 /10 min | 138.3 ± 67.6 /10 min | 135.6 ± 69.2 /10 min | 297.5 ± 81.0 /10 min | 110.8 ± 55.7 /10 min | 103.8 ± 60.9 /10 min | 289.8 ± 89.7 /10 min | 37.98 ± 13.71 | 4.03 ± 1.97 | 58.53 ± 11.96 | 3.52 ± 2.22 | 65.94 ± 14.95 | time to sleep [3, 9]: 3.21 ± 2.01 min |
| C=Cc1cc(C2CC(=O)c3cc(C(N)=O)c(C4CCSC4)c(Oc4ccccc4)c3O2)ccc1N (stereo not drawn) [Example 57] | 4 | 40* % | 6 | 60** % | 7 | 70** % | 299.9 ± 58.2 /10 min | 288.1 ± 73.0 /10 min | 311.7 ± 81.2 /10 min | 245.4 ± 45.9 /10 min | 240.8 ± 63.24 /10 min | 315.9 ± 85.6 /10 min | 206.6 ± 44.2 /10 min | 199.6 ± 49.9 /10 min | 325.7 ± 82.6 /10 min | 41.14 ± 23.51 | 4.61 ± 1.53 | 48.87 ± 19.80 | 4.13 ± 1.71 | 54.44 ± 21.81 | time to sleep [3, 9]: 3.43 ± 1.20 min |
